Data as given in patent US8623414B2, “Compositions comprising a lipid and copolymer of styrene and maleic acid” (Malvren Cosmeceutics Limited, priority 2005, dated 2014).
One block for each compound: values may come before it. Where a SMILES comes first, the peptide text is derived from it. The star is where a group is joined. Palmitoyl = CCCCCCCCCCCCCCCC(=O)*

How the values were obtained:
[1] = Example 5 Supplemental: turbidity meter (Nephla) of compositions with active agents over time (Table 12a); assay type: physicochemical; conditions: SMA 3000P (hydrolysed) 2.5%, lipid 90H 1%; as to clarity: key: Clear: categorised as being clear if there was no significant visible opacity to the naked eye; Cloudy: categorised as cloudy if there was significant visible disruption to the passage of light
Method: The turbidity meter was calibrated prior to use, with two known standards (0 and 40 FNU).
After the final stage of sample preparation (i.e. adjustment of the pH to physiological) samples were course filtered through Whatman 541 filter paper to remove any gross matter which could interfere with turbidity measurement. Immediately after filtration the first turbidity measurement was taken. Mixtures were stored at 4° C. following the initial measurement, and remeasured at later time points.

[2] = Example 5: compositions of the invention to solubilise exemplary active agents (visual clarity, pH on clearing, clarity at pH 7); conditions: SMA 3000HNa 2.5%, 90H 1%, S LPC 0.01%
Method: A stock emulsion of cosurfactant, membrane forming lipid and active was prepared at double the desired final concentration. Cosurfactant was dissolved in water while heating (approximately 50° C.) and stirring. Lipid was then added, followed by continued stirring and heating until a uniform emulsion is formed. The emulsion was then homogenised for 10 minutes. After re-heating to approximately 50° C. the active component was added slowly under stirring until a uniform emulsion was present. The final emulsion was then homogenised for a further 10 minutes.
Stock solutions were prepared by mixing of the hydrolysed polymer with the appropriate volume of water.
Polymer/lipid mixtures were then prepared by the dropwise addition of the lipid containing emulsion to an equal volume of polymer solution while stirring and heating to approximately 50° C.
The pH of the mixtures was adjusted to determine the critical pH level at which macromolecular assemblies formed, and whether the resulting clear and colourless solution would remain at physiological pH.
Percentage values specified in this experiment refer to the weight of the component in question as a proportion of the total weight of the composition.
Mixtures were visually examined to determine whether the polymer/lipid assemblies had solubilised the active agent in the aqueous medium. The clarity of a mixture was categorised as being clear if there was no significant visible opacity to the naked eye, whereas a mixture was categorised as cloudy if there was significant visible disruption to the passage of light.

[3] = Example 7: cosmetic gel preparation of Asc-P, clarity at pH 7; assay type: physicochemical; conditions: Solution A (hydrolysed SMA3000P 2.5%, 90H 1.0%, S-LPC 0.01%, Asc-P 0.1%, Phenonip 0.1%) mixed 1:1 with xanthan gum/carbopol gel
Method: The emulsion was then homogenised for 10 minutes.
Preservative was then added to the solution and the pH adjusted.
Xanthan gum and carbopol were mixed with water and stirred until a uniform gel was formed. The pH was then adjusted to 7.
Solution A and Solution B were then mixed in equal volumes to produce the final preparation.

[4] = S LPC 0.01%, active agent 0.25%
[5] = SL 30-3 0.05% (S LPC content 0.01%), active agent 0.80%

Clarity ([1]; S LPC 0.01%, active agent 0.1%): Clear
pH on clearing ([1]; S LPC 0.01%, active agent 0.1%): 8.86
Turbidity at pH 7 (FNU) ([1]; S LPC 0.01%, active agent 0.1%): 33.1 FNU
SMILES: CCCC(=O)O[C@]1(C(=O)CO)CC[C@H]2[C@@H]3CCC4=CC(=O)CC[C@]4(C)[C@H]3[C@@H](O)C[C@@]21C [HC But]

Clarity [1, 4]: Clear
pH on clearing [1, 4]: 8.97
Turbidity at pH 7 (FNU) [1, 4]: 9.09 FNU
SMILES: C[C@]12CCC(=O)C=C1CC[C@@H]1[C@@H]2[C@@H](O)C[C@@]2(C)[C@H]1CC[C@]2(O)C(=O)CO [HC, Hydrocortisone, reference compound]

Clarity ([2]; active agent 0.5%): Clear
Clarity at pH 7 ([2]; active agent 0.5%): Clear
pH on clearing ([2]; active agent 0.5%): 8.86
SMILES: CCCCCCCCCCCCCCCC(=O)N[C@@H](CCCCN)C(=O)N[C@H](C(=O)N[C@H](C(=O)N[C@@H](CCCCN)C(=O)N[C@@H](CO)C(=O)O)[C@@H](C)O)[C@@H](C)O [Mat, palmityl-KTTKS] (Palmitoyl-KTTKS-OH; C-terminus assumed)

Clarity [1, 4]: Clear
pH on clearing [1, 4]: 8.92
Turbidity at pH 7 (FNU) [1, 4]: 39.6 FNU
SMILES: CC(=O)OCC(=O)[C@@]1(O)CC[C@H]2[C@@H]3CCC4=CC(=O)CC[C@]4(C)[C@H]3[C@@H](O)C[C@@]21C [HC A, Hydrocortisone Acetate, reference compound]

Clarity ([2]; active agent 0.1%): Clear
Clarity at pH 7 ([2]; active agent 0.1%): Clear
pH on clearing ([2]; active agent 0.1%): 8.89
SMILES: CCCCCCCCC(CCCCCC)C(=O)OC[C@H](OC(=O)C(CCCCCC)CCCCCCCC)[C@H]1OC(=O)C(OC(=O)C(CCCCCC)CCCCCCCC)=C1OC(=O)C(CCCCCC)CCCCCCCC (some centres unmarked) [VC-IP]

Clarity [1, 4]: Clear
pH on clearing [1, 4]: 8.84
Turbidity at pH 7 (FNU) [1, 4]: 28.9 FNU
SMILES: CC(C)[C@@H]1CC[C@@H](C)C[C@H]1OC(=O)C1CCC(=O)N1 (some centres unmarked) [Questice]

Clarity ([2]; active agent 0.25%): Clear
Clarity at pH 7 ([2]; active agent 0.25%): Clear
pH on clearing ([2]; active agent 0.25%): 8.95
SMILES: CCCCCCCCCCCCCCCC(=O)OC/C=C(C)/C=C/C=C(C)/C=C/C1=C(C)CCCC1(C)C [Ret-P, Retinol palmitate]

Clarity ([2]; active agent 0.1%): Clear
Clarity at pH 7 ([2]; active agent 0.1%): Clear
pH on clearing ([2]; active agent 0.1%): 8.83
Clarity ([2]; active agent 0.25%): Clear
Clarity at pH 7 ([2]; active agent 0.25%): Clear
pH on clearing ([2]; active agent 0.25%): 8.83
SMILES: CC1=C(/C=C/C(C)=C/C=C/C(C)=C/C=C/C=C(C)/C=C/C=C(C)/C=C/C2=C(C)CCCC2(C)C)C(C)(C)CCC1 [β-Car, β-carotene]

Clarity [1, 5]: Clear
Turbidity at pH 7 (FNU) [1, 5]: 3.52 FNU
SMILES: Cc1cc(CC(C)CC(C)(C)C)n(O)c(=O)c1.NCCO (centres unmarked) [Octopirox, Piroctone olamine]

More lines, now with the values behind:

SMILES: CCCCCCCCCCCCCCCC(=O)OC[C@H](O)[C@H]1OC(=O)C(O)=C1O [Asc-P, L-ascorbyl palmitate]
Clarity at pH 7 ([2]; active agent 0.1%): Clear
pH on clearing ([2]; active agent 0.1%): 8.87
Appearance of cosmetic preparation [3]: clear and colourless aqueous gel

SMILES: COc1ccc(C(=O)CC(=O)c2ccc(C(C)(C)C)cc2)cc1 [Avobenzene]
Clarity ([1]; S LPC 0.01%, active agent 0.1%): Clear
pH on clearing ([1]; S LPC 0.01%, active agent 0.1%): 8.88
Turbidity at pH 7 (FNU) ([1]; S LPC 0.01%, active agent 0.1%): 62.0 FNU

SMILES: CC(C)CCC[C@@H](C)[C@H]1CC[C@H]2[C@@H]3CC=C4C[C@@H](OS(=O)(=O)O)CC[C@]4(C)[C@H]3CC[C@]12C [Chol Sulphate]
Clarity ([1]; S LPC 0.01%, active agent 0.1%): Clear
pH on clearing ([1]; S LPC 0.01%, active agent 0.1%): 8.81
Turbidity at pH 7 (FNU) ([1]; S LPC 0.01%, active agent 0.1%): 17.81 FNU

SMILES: Clc1ccccc1C(c1ccccc1)(c1ccccc1)n1ccnc1 [Clot., Clotrimazole, reference compound]
Clarity ([1]; S LPC 0.01%, active agent 0.1%): Clear
pH on clearing ([1]; S LPC 0.01%, active agent 0.1%): 8.78
Turbidity at pH 7 (FNU) ([1]; S LPC 0.01%, active agent 0.1%): 5.91 FNU

SMILES: CCCC(=O)O[C@]1(C(=O)CCl)[C@H](C)C[C@@H]2[C@@H]3CCC4=CC(=O)C=C[C@]4(C)[C@]3(F)C(=O)C[C@@]21C [Clo. But]
Clarity ([1]; S LPC 0.01%, active agent 0.1%): Clear
pH on clearing ([1]; S LPC 0.01%, active agent 0.1%): 8.94
Turbidity at pH 7 (FNU) ([1]; S LPC 0.01%, active agent 0.1%): 63.0 FNU

SMILES: CCCCC(CC)COC(=O)C=Cc1ccc(OC)cc1 (centres unmarked) [Eusolex 2292, Octyl methoxycinimate]
Clarity ([1]; S LPC 0.01%, active agent 0.1%): Clear
pH on clearing ([1]; S LPC 0.01%, active agent 0.1%): 8.81
Turbidity at pH 7 (FNU) ([1]; S LPC 0.01%, active agent 0.1%): 24.50 FNU

SMILES: CC(C)CCC[C@@H](C)[C@H]1CC[C@H]2C3=CC=C4C[C@@H](O)CC[C@]4(C)[C@H]3CC[C@]12C [7-DHC, 7-Dehydrocholesterol]
Clarity ([1]; S LPC 0.01%, active agent 0.1%): Clear
pH on clearing ([1]; S LPC 0.01%, active agent 0.1%): 8.91
Turbidity at pH 7 (FNU) ([1]; S LPC 0.01%, active agent 0.1%): 7.28 FNU

SMILES: COc1ccc(C(=O)c2ccccc2)c(O)c1 [Eusolex 4360, Benzophenone-3]
Clarity ([1]; S LPC 0.01%, active agent 0.1%): Clear
pH on clearing ([1]; S LPC 0.01%, active agent 0.1%): 8.96
Turbidity at pH 7 (FNU) ([1]; S LPC 0.01%, active agent 0.1%): 31.00 FNU
